Activity calls are given as the source filed them. The rule behind the calls is not given here.
Key:
H9c2 [1] = assay: Prevention of hypoxia-induced TSP1 expression in rat H9c2 cells assessed as inhibition of TSP1 overexpression at 10 uM measured after 4 hrs incubation; type: functional, cell-based
H9c2 [2] = assay: Prevention of hypoxia-induced ROS production in rat H9c2 cells at 1 uM measured after 4 hrs incubation by DCFH-DA method; type: functional, cell-based
Mus musculus [3] = assay: Prevention of myocardial hypoxia injury in isoproterenol-induced male C57 mouse myocardial injury model assessed as prevention of lamellar collagen fiber deposition at 8 to 16 mg/kg, ip once daily for 3 consecutive days by Masson staining based analysis; type: functional, organism-based; settings: dose 8-16 mg/kg, time 3.0 day
H9c2 [4] = assay: Prevention of hypoxia-induced decrease in ATP level in rat H9c2 cells at 10 uM […] (Rvb =- 19.6 nmol/mg); type: ADME, cell-based; settings: h9c2, 10 µM
Mus musculus [5] = assay: Prevention of myocardial hypoxia injury in isoproterenol-induced male C57 mouse myocardial injury model assessed as prevention of bundle collagen fiber deposition at 8 to 16 mg/kg, ip once daily for 3 consecutive days by Masson staining based analysis; type: functional, organism-based; settings: dose 8-16 mg/kg, time 3.0 day
Mus musculus [6] = assay: Prevention of myocardial hypoxia injury in isoproterenol-induced male C57 mouse myocardial injury model assessed as pathological myocardial change by clear vascular boundaries at 8 to 16 mg/kg, ip once daily for 3 consecutive days by hematoxylin and eosin staining based analysis; type: functional, organism-based; settings: dose 8-16 mg/kg, time 3.0 day
[7] = Toxicity in male C57 mouse assessed as physiological distress at 900 mg/kg, ip measured after 12 hrs of administration; type: organism-based; settings: in vivo
Mus musculus [8] = assay: Prevention of myocardial hypoxia injury in isoproterenol-induced male C57 mouse myocardial injury model assessed as heart weight ratio at 16 mg/kg, ip once daily for 3 consecutive days (reference value: 0.60%); type: functional; settings: time 3 day
H9c2 [9] = assay: Prevention of hypoxia-induced mTORC1 expression in rat H9c2 cells assessed as inhibition of mTORC1 overexpression at 10 uM measured after 4 hrs incubation; type: functional, cell-based
Mus musculus [10] = assay: Prevention of myocardial hypoxia injury in isoproterenol-induced male C57 mouse myocardial injury model assessed as reduction in cardiac troponin (CK) at 5 mg/kg, ip once daily for 3 consecutive days by immunohistochemistry; type: functional, organism-based; settings: time 3.0 day
Mus musculus [11] = assay: Prevention of myocardial hypoxia injury in isoproterenol-induced male C57 mouse myocardial injury model assessed as heart weight ratio at 8 mg/kg, ip once daily for 3 consecutive days (reference value: 0.60%); type: functional; settings: time 3 day
Mus musculus [12] = assay: Prevention of myocardial hypoxia injury in isoproterenol-induced male C57 mouse myocardial injury model assessed as decrease in myocardial size at 8 mg/kg, ip once daily for 3 consecutive days (reference value: 6.47 mm); type: functional; settings: time 3 day
[13] = AUC (0 to infinity) in female Balb/c at 8 mg/kg, ip mouse measured up to 24 hrs by LC-MS/MS analysis; type: ADME, organism-based; settings: in vivo
Mus musculus [14] = assay: Prevention of myocardial hypoxia injury in isoproterenol-induced male C57 mouse myocardial injury model assessed as reduction in cardiac troponin (CK) at 8 to 16 mg/kg, ip once daily for 3 consecutive days by immunohistochemistry; type: functional, organism-based; settings: dose 8-16 mg/kg, time 3.0 day
Mus musculus [15] = assay: Prevention of myocardial hypoxia injury in isoproterenol-induced male C57 mouse myocardial injury model assessed as increase in NO level in myocardial tissue at 8 to 16 mg/kg, ip once daily for 3 consecutive days; type: functional, organism-based; settings: dose 8-16 mg/kg, time 3.0 day
H9c2 [16] = assay: Prevention of hypoxia-induced TSC2-P expression in rat H9c2 cells assessed as inhibition of TSC2-P overexpression at 10 uM measured after 4 hrs incubation; type: functional, cell-based
Mus musculus [17] = assay: Prevention of myocardial hypoxia injury in isoproterenol-induced male C57 mouse myocardial injury model assessed as pathological myocardial change by measuring cellular arrangements at 8 to 16 mg/kg, IG once daily for 3 consecutive days by hematoxylin and eosin staining based analysis; type: functional, organism-based; settings: dose 8-16 mg/kg, time 3.0 day
H9c2 [18] = assay: Prevention of hypoxia-induced decrease cell viability of rat H9c2 cells at 10 uM by CCK8 assay; type: functional, cell-based
Mus musculus [19] = assay: Prevention of myocardial hypoxia injury in isoproterenol-induced male C57 mouse myocardial injury model assessed as increase in NO level in heart tissue at 16 mg/kg, ip once daily for 3 consecutive days; type: functional, organism-based; settings: time 3.0 day
Mus musculus [20] = assay: Prevention of myocardial hypoxia injury in isoproterenol-induced male C57 mouse myocardial injury model assessed as decrease in mTORC1 expression at 8 to 16 mg/kg, ip once daily for 3 consecutive days by immunohistochemistry; type: functional, organism-based; settings: dose 8-16 mg/kg, time 3.0 day
H9c2 [21] = assay: Prevention of hypoxia-induced ACE expression in rat H9c2 cells assessed as inhibition of ACE overexpression at 10 uM measured after 4 hrs incubation; type: functional, cell-based
Mus musculus [22] = assay: Prevention of myocardial hypoxia injury in isoproterenol-induced male C57 mouse myocardial injury model assessed as reduction in creatine kinase (CK) at 5 mg/kg, ip once daily for 3 consecutive days by immunohistochemistry; type: functional, organism-based; settings: time 3.0 day
Mus musculus [23] = assay: Prevention of myocardial hypoxia injury in isoproterenol-induced male C57 mouse myocardial injury model assessed as decrease in ACE expression at 8 to 16 mg/kg, ip once daily for 3 consecutive days by immunohistochemistry; type: functional, organism-based; settings: dose 8-16 mg/kg, time 3.0 day
Mus musculus [24] = assay: Prevention of myocardial hypoxia injury in isoproterenol-induced male C57 mouse myocardial injury model assessed as reduction in creatine kinase (CK) at 8 to 16 mg/kg, ip once daily for 3 consecutive days by immunohistochemistry; type: functional, organism-based; settings: dose 8-16 mg/kg, time 3.0 day
Mus musculus [25] = assay: Prevention of myocardial hypoxia injury in isoproterenol-induced male C57 mouse myocardial injury model assessed as reduction in creatine kinase-MB (CK-MB) at 8 to 16 mg/kg, ip once daily for 3 consecutive days by immunohistochemistry; type: functional, organism-based; settings: dose 8-16 mg/kg, time 3.0 day
[26] = Toxicity in isoproterenol-induced male C57 mouse assessed as body weight change at 5 mg/kg, ip once daily for 3 consecutive days; type: organism-based; settings: in vivo, 72 h, time 3 day
Mus musculus [27] = assay: Prevention of myocardial hypoxia injury in isoproterenol-induced male C57 mouse myocardial injury model assessed as pathological myocardial change by heart sections at 8 to 16 mg/kg, ip once daily for 3 consecutive days by hematoxylin and eosin staining based analysis; type: functional, organism-based; settings: dose 8-16 mg/kg, time 3.0 day
H9c2 [28] = assay: Induction of NO release in rat H9c2 cells under hypoxia condition at 10 uM by Griess reagent assay relative to control; type: functional
H9c2 [29] = assay: Prevention of hypoxia-induced apoptosis in rat H9c2 cells assessed as decrease in late apoptosis and necrosis by measuring reduced red fluorescence at 10 uM incubated for 4 hrs by confocal microscopy with Annexin V-FITC and propidium iodide (PI) double staining analysis; type: functional, cell-based
Mus musculus [30] = assay: Prevention of myocardial hypoxia injury in isoproterenol-induced male C57 mouse myocardial injury model assessed as pathological myocardial change by measuring improvement in disorganized cell arrangement at 8 to 16 mg/kg, ip once daily for 3 consecutive days by hematoxylin and eosin staining based analysis; type: functional, organism-based; settings: dose 8-16 mg/kg, time 3.0 day
Mus musculus [31] = assay: Prevention of myocardial hypoxia injury in isoproterenol-induced male C57 mouse myocardial injury model assessed as increase in NO level in myocardial tissue at 8 to 16 mg/kg, IG once daily for 3 consecutive days; type: functional, organism-based; settings: dose 8-16 mg/kg, time 3.0 day
[32] = Toxicity in male C57 mouse assessed as adverse effect at 900 mg/kg, ip measured up to 14 days observation period; type: organism-based; settings: in vivo, 336 h, time < 14 day
[33] = Induction of NO release in rat H9c2 cells at 10 uM by Griess reagent assay relative to control; type: functional
Mus musculus [34] = assay: Prevention of myocardial hypoxia injury in isoproterenol-induced male C57 mouse myocardial injury model assessed as antihypertrophic effect at 8 mg/kg, ip once daily for 3 consecutive days; type: functional, organism-based; settings: time 3.0 day

Question: Which results are given for `CN(N=O)c1ccc(OCc2ccc([N+](=O)[O-])c(F)c2)cc1`?
Answer: Activity (H9c2 [1]): Active; Activity (H9c2 [2]): Active; Activity (Mus musculus [3]): Active; Activity (H9c2 [4]): 37.9 nmol/mg; Activity (Mus musculus [5]): Active; Activity (Mus musculus [6]): Active; Activity [7]: Non-toxic; Activity (Mus musculus [8]): 0.51%; Activity (H9c2 [9]): Active; Activity (Mus musculus [10]): Active; Activity (Mus musculus [11]): 0.54%; Activity (Mus musculus [12]): 2.53 mm; AUC [13]: 640 ng·h/mL; Activity (Mus musculus [14]): Active; Activity (Mus musculus [15]): Active; Activity (H9c2 [16]): Active; Activity (Mus musculus [17]): Active; Activity (H9c2 [18]): Active; Partially Restores Cell Viability; Activity (Mus musculus [19]): Active; Activity (Mus musculus [20]): Active; Activity (H9c2 [21]): Active; Activity (Mus musculus [22]): Active; Activity (Mus musculus [23]): Active; Activity (Mus musculus [24]): Active; Activity (Mus musculus [25]): Active; Activity [26]: Non-toxic; Activity (Mus musculus [27]): Active; Activity (H9c2 [28]): 26.54%; Activity (H9c2 [29]): Active; Reduced Red Fluorescence To Certain Extents; Activity (Mus musculus [30]): Active; Activity (Mus musculus [31]): Active; Activity [32]: Non-toxic; Activity [33]: <5%; Activity (Mus musculus [34]): Active

From ChEMBL document CHEMBL6087446, “Hypoxia Activated Nitric Oxide Donor Compounds for the Prevention and Treatment of Myocardial Hypoxia-Induced Injury” (J Med Chem, 2025)
